Results from US20260248780A1, “PHARMACEUTICAL COMPOSITIONS” (Birdie Biopharmaceuticals, Inc., priority 2017, published 2026).
In brackets after ≈: the same amount, converted by molar mass.

Key:
[1] = pKa determination on Sirius T3; assay type: physicochemical
Description: The mixtures of freebase and acid were stirred at RT for 2.5 days. Clear solutions obtained were slurried at 5° C. overnight to induce precipitation. If the samples were still clear, they would be subjected to evaporation to dryness at RT, in order to maximize the chance of identifying as many crystalline hits as possible. Resulted solids were isolated and analyzed by XRPD.
pKa was determined on Sirius T3 TM according to the manufacturer's instructions and the parameters for pKa test was listed in Table 5-13.

[2] = Kinetic solubility in water and bio-relevant media (SGF, FaSSIF, FeSSIF) at RT; assay type: physicochemical; details: for FC: Solid form change / S: Solubility / pH: Final pH of supernatant: RT
Description: After being centrifuged and separated using 0.45 μm Nylon filter, filtrates were collected for HPLC and pH test, and wet cakes for XRPD characterization. If clear solutions were obtained after 24 hours, accurate concentration and purity were measured for the solutions.

CCOCc1nc2c(N)nc3ccccc3c2n1CC(C)(C)O [Freebase Type A, 1-[4-amino-2-(ethoxymethyl)imidazo-[4,5-c]-quinolin-1-yl]-2-methylpropan-2-ol]
pKa [1]: 7.2 | solubility kinetic ([2]; FaSSIF): ~2900 µg/mL (≈ 9.22 mM) | FC: Solid form change ([2]; FaSSIF, 1 hr): No | S: Solubility ([2]; FaSSIF, 1 hr): 2700 µg/mL | pH: Final pH of supernatant ([2]; FaSSIF, 1 hr): 7.0 | FC: Solid form change ([2]; FaSSIF, 2 hrs): No | S: Solubility ([2]; FaSSIF, 2 hrs): 2800 µg/mL | pH: Final pH of supernatant ([2]; FaSSIF, 2 hrs): 7.0 | FC: Solid form change ([2]; FaSSIF, 4 hrs): No | S: Solubility ([2]; FaSSIF, 4 hrs): 2800 µg/mL | pH: Final pH of supernatant ([2]; FaSSIF, 4 hrs): 7.1 | FC: Solid form change ([2]; FaSSIF, 24 hrs): No | S: Solubility ([2]; FaSSIF, 24 hrs): 2900 µg/mL | pH: Final pH of supernatant ([2]; FaSSIF, 24 hrs): 7.0 | pH: Final pH of supernatant ([2]; FeSSIF, 24 hrs): 5.4 | solubility kinetic ([2]; SGF and FeSSIF, simulated gastric fluid, SGF/FeSSIF): > 4900 µg/mL | S: Solubility ([2]; SGF, 1 hr): 2700 µg/mL | pH: Final pH of supernatant ([2]; SGF, 1 hr): 3.6 | S: Solubility ([2]; SGF, 2 hrs): 3500 µg/mL | pH: Final pH of supernatant ([2]; SGF, 2 hrs): 5.0 | S: Solubility ([2]; SGF, 4 hrs): 5000 µg/mL | pH: Final pH of supernatant ([2]; SGF, 4 hrs): 5.0 | S: Solubility ([2]; SGF, 24 hrs): 5000 µg/mL | pH: Final pH of supernatant ([2]; SGF, 24 hrs): 4.9 | FC: Solid form change ([2]; Water, 1 hr): No | S: Solubility ([2]; Water, 1 hr): 500 µg/mL | pH: Final pH of supernatant ([2]; Water, 1 hr): 8.4 | FC: Solid form change ([2]; Water, 2 hrs): No | S: Solubility ([2]; Water, 2 hrs): 500 µg/mL | pH: Final pH of supernatant ([2]; Water, 2 hrs): 8.6 | FC: Solid form change ([2]; Water, 4 hrs): No | S: Solubility ([2]; Water, 4 hrs): 500 µg/mL | pH: Final pH of supernatant ([2]; Water, 4 hrs): 8.1 | FC: Solid form change ([2]; Water, 24 hrs): No | S: Solubility ([2]; Water, 24 hrs): 500 µg/mL | pH: Final pH of supernatant ([2]; Water, 24 hrs): 8.1 | Kinetic Solubility at RT ([2]; water): ~0.5 (water) mg/mL
